For test [1], the target named is proliferating cell nuclear antigen (PCNA) (Homo sapiens, UniProt P12004). In words: fluorescence titration, hyperbolic single-site fit. As to conditions: constant PCNA, increasing TNP-ATP. The class given is binding.
In a further test the target is creatine phosphokinase. In words: fluorescence titration, hyperbolic single-site fit. The settings on record: known ATP-binding protein for comparison.

From publication PMC3771522 (Analytical chemistry, 2013) come the findings set out here.

Chain of proliferating cell nuclear antigen (PCNA) (P12004 whole entry): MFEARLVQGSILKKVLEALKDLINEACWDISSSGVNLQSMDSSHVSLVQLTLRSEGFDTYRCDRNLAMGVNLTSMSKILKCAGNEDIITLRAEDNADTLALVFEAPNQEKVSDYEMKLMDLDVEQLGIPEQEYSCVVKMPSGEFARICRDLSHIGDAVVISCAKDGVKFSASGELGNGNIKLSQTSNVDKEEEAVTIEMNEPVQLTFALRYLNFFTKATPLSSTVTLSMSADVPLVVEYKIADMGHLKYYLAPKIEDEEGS

With TNP-ATP, the Kd in test [1] amounted to 13 µM; on creatine phosphokinase, 27 µM.
